Tested on: 3rd instar Aedes aegypti
Assay: Laboratory bioassay in larval trays, larvicide surface film, Aedes aegypti
Format: in vivo
Details: components of Sample 42 tested neat, rate 663 μL, 21° C.
Procedure: Laboratory Bioassay Method. All larvae were reared on a diet of ground TETRAMIN® fish food (Tetra, Blacksburg, Va.) in an insectary maintained at 30° C. and 45% relative humidity (RH). Mainly third instars of Aedes aegypti were used for the laboratory container experiments. Anopheles quadrimaculatus and Culex quinquefasciatus were also tested where indicated.
Laboratory bioassays were conducted in […] plastic larval trays (laboratory containers). Each tray was filled with 27 liters of de-chlorinated water and received 50 healthy third instar larvae. The temperature of the water during most of the studies was 21° C. Additional testing was done at a water temperature of 15.6° C. and 28° C. Treatments were applied at a rate of 3 gal/acre or 663 μL/tray with an Eppendorf pipette. During the experimental period larvae were fed ground TETRAMIN® fish food (Tetra, Blacksburg, Va.) that was blended with water before introduction into the water of the larval tray to prevent flotation and thus interference with the surface film being tested.
Trays were scored for mortality at 1, 2, 4, 24, 48, and 72 hours following treatment introduction. At each time period the numbers of live and dead larvae were counted. […] Each treatment in the study was replicated three times using separate trays for each replication. A 95% mortality rate was considered acceptable for a commercial product.

Substance: ethoxylated tridecyl alcohol
- % MORTALITY 24 HAT (24 HAT): 17%
- % MORTALITY 48 HAT (48 HAT): 20%
- % MORTALITY 72 HAT (72 HAT): 25%

Source: patent US20160270410A1, “INSECTICIDAL COMPOSITIONS AND METHODS OF USING THE SAME” (Clarke Mosquito Control Products, Inc., priority 2011, published 2016)
